Earlier results, collected in patent US9226906B2, “Method and nutritional supplement for enhancing weight gain of a mammal” (Supragenix, LLC, priority 2013, dated 2016).

target: CB1 (Homo sapiens, UniProt P21554)
Sequence (P21554 whole entry, species assumed): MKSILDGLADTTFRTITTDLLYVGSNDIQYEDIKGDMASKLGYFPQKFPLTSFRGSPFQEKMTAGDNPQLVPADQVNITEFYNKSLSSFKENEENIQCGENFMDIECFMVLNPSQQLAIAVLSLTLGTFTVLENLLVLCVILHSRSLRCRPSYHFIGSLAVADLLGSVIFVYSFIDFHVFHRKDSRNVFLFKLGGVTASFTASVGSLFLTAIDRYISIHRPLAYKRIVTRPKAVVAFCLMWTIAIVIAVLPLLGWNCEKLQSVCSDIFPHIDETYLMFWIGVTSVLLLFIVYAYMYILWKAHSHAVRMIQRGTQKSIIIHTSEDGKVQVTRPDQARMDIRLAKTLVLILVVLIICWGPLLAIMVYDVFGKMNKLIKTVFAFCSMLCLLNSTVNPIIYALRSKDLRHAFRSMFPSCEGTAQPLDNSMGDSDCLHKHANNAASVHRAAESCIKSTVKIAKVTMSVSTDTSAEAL

Row | Compound | activating CB1
1 | CCC/C=C\CC/C=C/C=C/C(=O)NCC(C)C [Dodeca-2E,4E,8Z-trienoic acid isobutylamide] | effective in activating CB1
2 | CCCCCCC/C=C/C=C/C(=O)NCC(C)C [Dodeca-2E,4E-dienoic acid isobutylamide] | effective in activating CB1
3 | CC#CC#CCC/C=C\C=C\C(=O)NCC(C)C [Dodeca-2E,4Z-diene-8,10-diynoic acid isobutylamide] | effective in activating CB1
4 | CC#CC#CCCCC/C=C/C(=O)NCC(C)CC (centres unmarked) [Dodeca-2E-ene-8,10-diynoic acid 2-methylbutylamide] | effective in activating CB1
5 | C#CC#CC/C=C\CCCCC/C=C/C(=O)NCC(C)C [Pentadeca-2E,9Z-diene-12,14-diynoic acid isobutylamide] | effective in activating CB1
6 | C#CC#CCCCCC=CC(=O)NCC(C)C [Undeca-2-ene-8,10-diynoic acid isobutylamide] | effective in activating CB1
7 | C#CC#CCC/C=C/C=C\C(=O)NCC(C)C [Undeca-2Z,4E-diene-8,10-diynoic acid isobutylamide] | effective in activating CB1
8 | Dodeca-2E,4E,8Z,10E/Z-tetraenoic acid isobutylamides | effective in activating CB1
